Measurements published in patent publication US20030114673A1, “2-AMINO-5,6-DIHALO-3,4-DIHYDROQUINAZOLINES WITH BLOOD PLATELET REDUCING PROPERTIES” (priority 2002, published 2003).
Counter-ions that a name gives are not always drawn.

What was measured:
platelet aggregation = experiment: Platelet aggregation; assay type: cell-based; settings: even at high concentrations (10 μg/mL)
megakaryocytic lineage = experiment: Inhibition of megakaryocytic endoreplication; assay type: cell-based
[1] = tested on: circulating platelet levels; experiment: Daily intraperitoneal injection in mice, circulating platelet levels and safety; assay type: in vivo
Method: Administration of 100 μg/day of the preferred compound was sufficient to decrease platelet counts within 24-48 hours stabilizing to 50% of normal by day 5.

CD15+ myeloid lineage = experiment: Effect on the CD15+ myeloid lineage in vitro; assay type: cell-based
Solubility in water = assay type: physicochemical; settings: salt form as named
Source text: 2-Amino-5,6-dichloro-3,4-dihydroquinazoline (compound (E) wherein X and Y are both Cl) is the preferred compound for use in reducing the platelet count in patients and is preferably provided as the hydrobromide salt which is water soluble.

[2] = Cardiovascular screening and side effect profile of the compound; assay type: in vivo
platelet count = experiment: Platelet reducing properties; settings: in vivo
[3] = In vitro metabolism of Anagrelide in rat intestinal mucosa; assay type: in vitro ADME
Source text: (§1) Metabolism of Anagrelide was examined in a number of in vitro systems including rat and human liver microsomes, human whole blood, human bone marrow cells and rat intestinal mucosa. […] It appears that in vivo metabolism occurs by a route that cannot be readily mimicked in vitro. It is hypothesized that the first step of in vivo metabolism involves hydroxylation of the carbon α to the carbonyl followed by amide hydrolysis and loss of the elements of glyoxylic acid.

[4] = design: species or system Rhesus Monkeys; settings: rhesus monkey, in vivo
Source text: In a recent pharmacokinetic and excretion study of [^14C]

[5] = In vitro metabolism of Anagrelide in human liver microsomes; assay type: in vitro ADME
Source text: as §1

[6] = cited from earlier work
[7] = In vitro metabolism of Anagrelide in rat liver microsomes; assay type: in vitro ADME
Source text: as §1

[8] = clinical use of Anagrelide; cited from earlier work
[9] = In vitro metabolism of Anagrelide in human whole blood; assay type: in vitro ADME
Source text: as §1

[10] = In vitro metabolism of Anagrelide in human bone marrow cells; assay type: in vitro ADME
Source text: as §1

Question: For `Br.NC1=Nc2ccc(Cl)c(Cl)c2CN1` [2-amino-5,6-dichloro-3,4-dihydroquinazoline hydrobromide], which “inhibition of platelet aggregation” value (platelet aggregation) is on record?
Answer: did not inhibit platelet aggregation

Question: What about the “inhibition of megakaryocytic endoreplication” value (megakaryocytic lineage) of the same compound?
Answer: profound inhibition

Question: What about the “dose for inhibition of megakaryocytic endoreplication relative to doses reported for Anagrelide” value (megakaryocytic lineage; compared with those reported for Anagrelide) of the same compound?
Answer: 500 times less

Question: What about the circulating platelet levels ([1]; 6- to 8-month old mice, daily intraperitoneal injection) of the same compound?
Answer: dose-dependent decrease

Question: What about the “time to decrease in platelet counts” value ([1]; mice, 100 μg/day intraperitoneal) of the same compound?
Answer: 24 to 48 h

Question: What about the “platelet counts stabilized level” value ([1]; mice, 100 μg/day intraperitoneal, by day 5) of the same compound?
Answer: 50 % of normal

Question: What about the “apparent signs of toxicity or haemorrhaging” value ([1]; mice, high doses (300 μg)) of the same compound?
Answer: did not alter white blood cell counts, bleeding time or lead to any apparent signs of toxicity or haemorrhaging

Question: What about the “effect on the CD15+ myeloid lineage” value (CD15+ myeloid lineage) of the same compound?
Answer: no effect

Question: What about the solubility in water (Solubility in water) of the same compound?
Answer: water soluble

Question: Which antihypertensive activity ([2]; cardiovascular screening) does the source give for `NC1=Nc2ccc(Cl)c(Cl)c2CN1` [2-amino-5,6-dichloro-3,4-dihydroquinazoline] here?
Answer: Only very mild antihypertensive activity

Question: And the “side effects of inotropy and haemorrhaging associated with Anagrelide” value ([2]; in vivo)?
Answer: without the side effects of inotropy and haemorrhaging

Question: What about the “reduction of platelet counts” value (platelet count) of the same compound?
Answer: active molecule for causing reduction of platelet counts

Question: With `O=C1CN2Cc3c(ccc(Cl)c3Cl)N=C2N1` [Anagrelide hydrochloride] as the compound, how does the solubility in water (Solubility in water) read?
Answer: nearly insoluble in water

Question: What does the source list for `O=C1CN2Cc3c(ccc(Cl)c3Cl)N=C2N1` [Anagrelide, 6,7-dichloro-1,5-dihydroimidazo-[2,1-b]-quinazolin-2(3H)-one]?
Answer: metabolism in vitro [3]: completely resistant to metabolism; detection of the human metabolite 2-amino-5,6-dichloro-3,4-dihydroquinazoline [4]: no human metabolite (2-amino-5,6-dichloro-3,4-dihydroquinazoline) was detected; metabolism in vitro [5]: completely resistant to metabolism; Anagrelide dose excreted as unchanged drug in the urine ([6]; human subjects): < 1%; peak plasma concentrations of the parent drug ([6]; human subjects): 6 ng/mL; urinary radioactivity accounted for by a minimum of four to five metabolites ([6]; human, in vivo): over 75%; metabolism in vitro [7]: completely resistant to metabolism; congestive heart failure (cardiovascular side effect incidence) [8]: 1.5%; palpitations (cardiovascular side effect incidence) [8]: 26.1%; tachycardia (cardiovascular side effect incidence) [8]: 7.5%; vasodilation (cardiovascular side effect incidence) [8]: < 5%; metabolism in vitro [9]: completely resistant to metabolism; metabolism in vitro [10]: completely resistant to metabolism
